This series has as its system human MDR1 P-gp. The series is described as follows: Assay D: efflux in MDCK cells transfected with the human MDR1 gene. The series is classed as in vitro ADME, canine. The conditions noted are these: dog; MDCK-MDR1 monolayers, pH 7.4, 37° C.; read-out: MDCK efflux ratio (BA/AB). The method, then:
The MDCK assay provides information on the potential of a compound to pass the blood brain barrier. Permeability measurements across polarized, confluent MDCK-MDR1 cell monolayers grown on permeable filter supports are used as an in vitro absorption model: apparent permeability coefficients (PE) of the compounds across the MDCK-MDR1 cell monolayers are measured (pH 7.4, 37° C.) in apical-to-basal (AB) and basal-to-apical (BA) transport direction. The AB permeability (PEAB) represents drug absorption from the blood into the brain and the BA permeability (PEBA) drug efflux from the brain back into the blood via both, passive permeability as well as active transport mechanisms mediated by efflux and uptake transporters that are expressed on the MDCK-MDR1 cells, predominantly by the overexpressed human MDR1 P-gp. Identical or similar permeabilities in both transport directions indicate passive permeation, vectorial permeability points to additional active transport mechanisms. Higher PEBA than PEAB (PEBA/PEAB>5) indicates the involvement of active efflux mediated by MDR1 P-gp, which might compromises the goal to achieve sufficient brain exposure. Therefore this assay provides valuable support for selection of compounds applicable for further in vivo testing. High permeability not limited by efflux at the blood brain barrier is a favourable characteristic for compounds that are to be used for drugs acting primarily in the CNS
D. Assessment of Efflux in Madin-Darby Canine Kidney (MDCK) Cells Transfected with the Human MDR1 Gene
Apparent permeability coefficients (PE) of the compounds across the MDCK-MDR1 cell monolayers are measured (pH 7.4, 37° C.) in apical-to-basal (AB) and basal-to-apical (BA) transport direction. AB permeability (PEAB) represents drug absorption from the blood into the brain and BA permeability (PEBA) drug efflux from the brain back into the blood via both passive permeability as well as active transport mechanisms mediated by efflux and uptake transporters that are expressed on the MDCK-MDR1 cells, predominantly by the overexpressed human MDR1 P-gp. The compounds are assigned to permeability/absorption classes by comparison of the AB permeabilities with the AB permeabilities of reference compounds with known in vitro permeability and oral absorption in the human. Identical or similar permeabilities in both transport directions indicate passive permeation, vectorial permeability points to additional active transport mechanisms. Higher PEBA than PEAB indicates the involvement of active efflux mediated by MDR1 P-gp. Active transport is concentration-dependently saturable.
MDCK-MDR1 cells (1-2×10e5 cells/1 cm2 area) are seeded on filter inserts (Costar transwell polycarbonate or PET filters, 0.4 μm pore size) and cultured (DMEM) for 7 days. Subsequently, the MDR1 expression is boosted by culturing the cells with 5 mM sodium butyrate in full medium for 2 days. Compounds are dissolved in appropriate solvent (like DMSO, 1-20 mM stock solutions). Stock solutions are diluted with HTP-4 buffer (128.13 mM NaCl, 5.36 mM KCl, 1 mM MgSO4, 1.8 mM CaCl2, 4.17 mM NaHCO3, 1.19 mM Na2HPO4×7H2O, 0.41 mM NaH2PO4×H2O, 15 mM HEPES, 20 mM glucose, 0.25% BSA, pH 7.4) to prepare the transport solutions (0.1-300 μM compound, final DMSO<=0.5%). The transport solution (TL) is applied to the apical or basolateral donor side for measuring A-B or B-A permeability (3 filter replicates), respectively. The receiver side contains the same buffer as the donor side. Samples are collected at the start and end of experiment from the donor and at various time intervals for up to 2 hours also from the receiver side for concentration measurement by HPLC-MS/MS or scintillation counting. Sampled receiver volumes are replaced with fresh receiver solution.
`CCN(C(=O)c1ccccc1-n1nccn1)[C@@H](C)CNc1ncc(C(F)(F)F)cn1` [Example 1]: the efflux ratio is less than 3.
Under `CCN(C(=O)c1nc(C)ccc1-n1nccn1)[C@@H](C)CNc1ncc(C(F)(F)F)cn1` [Example 9] stands less than 3.
In the case of `CCN(C(=O)c1cnc(C)nc1-c1ccccc1)[C@@H](C)CNc1ncc(C(F)(F)F)cn1` [Example 17] it was less than 3.
Regarding `CCN(C(=O)c1cccc(F)c1-n1nccn1)[C@@H](C)CNc1ncc(C(F)(F)F)cn1` [Example 18], the efflux ratio is less than 3.

For the origin of these results see patent publication US9884854B2, “N-[(pyrimidinylamino)propanyl]-and N[(pyrazinylamino)proppanyl]arylcarboxamides” (Boehringer Ingelheim International GmbH, priority 2016, dated 2018).
